Bounds are passed on as bounds.

Drawing on patent US20100069380A1 (published 2010), this text covers melting point for one compound.

What is called melting point is the temperature, or range, at which the solid turns liquid. For the compound `Nc1ccc(Sc2c(O)c3c(=O)n(-c4ccccc4)c4ccccc4c3oc2=O)cc1`, the melting point was > 300 °C.
